Laboratory results taken from patent US9260504B2, “N- and C-terminal substituted antagonistic analogs of GH-RH” (University of Miami, priority 2008, dated 2016).

Columns and labels:
Assay type in all cases: in vivo
[1] = system: SK-Hep-1 human hepatocellular cancer; assay: SK-Hep-1 human hepatocellular cancer xenografts in nude mice; details: 10 μg/day s.c.
Description: SK-Hep-1 cancers were transplanted s.c. into both flank areas of 66 female nude mice, and allowed to grow for 47 days before starting the treatment with GH-RH antagonists. The mice were randomly assigned into 4 experimental groups with 8 animals in each group and received single daily injections for 135 days as follows: 1. Control (vehicle solution); 2. JMR-132 (10 μg/day s.c.); 3. Peptide 1109 (5 μg/day s.c.); 4. Peptide 1109 (10 μg/day s.c.). Tumor volumes were measured once a week. The experiment was ended on day 135 by sacrificing the mice under Isoflurane anesthesia. Resulting tumors were cleaned, weighed, and snap-frozen until further analyses. Statistical analyses of the measurement results were done by two-tailed t-test, p<0.05 being considered significant. Data are presented as the means±S.E.

[2] = system: H-460 human non-small cell lung cancer; assay: H-460 human non-SCLC xenografts in nude mice, Experiment 3; details: 10 μg/day s.c., 28 days
Description: (§1) Male nude mice were implanted s.c. with 3 mm^3 pieces of H-460 human non-SCLC tumor tissue on both flanks. When tumors had grown to a mean volume of approximately 90 mm^3, the mice were randomly assigned into 8 experimental groups with 8 to 10 animals in each group and received single daily injections for 28 days as follows: 1. Control (vehicle solution); 2. JMR-132 (10 μg/day s.c.); 3. Peptide 11123 (5 μg/day s.c.); 4. Peptide 11125 (5 μg/day s.c.); 5. Peptide 11307 (5 μg/day s.c.); 6. Peptide 11317 (5 μg/day s.c.); 7. Peptide 11473 (5 μg/day s.c.); 8. Peptide 11485 (5 μg/day s.c.). Tumor volumes were measured once a week. The experiment was ended on day 28 by sacrificing the mice under Isoflurane anesthesia. Resulting tumors were cleaned, weighed, and snap-frozen until further analyses. Statistical analyses of the measurement results were done by two-tailed t-test, p<0.05 being considered significant.

[3] = system: H-460 human non-small cell lung cancer; assay: H-460 human non-SCLC xenografts in nude mice, Experiment 2; details: 10 μg/day s.c.
Description: Male nude mice were implanted s.c. with 3 mm^3 pieces of H-460 human non-SCLC tumor tissue on both flanks. When tumors had grown to a mean volume of approximately 90 mm^3, the mice were randomly assigned into 12 experimental groups with 8 to 10 animals in each group and received single daily injections for 28 days as follows: 1. Control (vehicle solution); 2. JMR-132 (10 μg/day s.c.); 3. Peptide 11109 (5 μg/day s.c.); 4. Peptide 11113 (5 μg/day s.c.); 5. Peptide 11119 (5 μg/day s.c.); 6. Peptide 11209 (5 μg/day s.c.); 7. Peptide 11313 (5 μg/day s.c.); 8. Peptide 11408 (5 μg/day s.c.); 9. Peptide 11435 (5 μg/day s.c.); 10. Peptide 11459 (5 μg/day s.c.); 11. Peptide 11469 (5 μg/day s.c.); 12. Peptide 11491 (5 μg/day s.c.). Tumor volumes were measured once a week. The experiment was ended on day 28 by sacrificing the mice under Isoflurane anesthesia. Resulting tumors were cleaned, weighed, and snap-frozen until further analyses. Statistical analyses of the measurement results were done by two-tailed t-test, p<0.05 being considered significant. Data are presented as the means±S.E.

[4] = system: H-460 human non-small cell lung cancer; assay: H-460 human non-SCLC xenografts in nude mice, Experiment 1; details: 10 μg/day s.c., 28 days; means±S.E.
Description: as §1, with “into 4” for “into 8”, “with” for “with 8 to”, “Peptide 1109 (10” for “Peptide 11123 (5”, “Peptide 11111 (10” for “Peptide 11125 (5 μg/day s.c.); 5. Peptide 11307 (5 μg/day s.c.); 6. Peptide 11317 (5 μg/day s.c.); 7. Peptide 11473 (5 μg/day s.c.); 8. Peptide 11485 (5”, “significant. Data are presented as the means±S.E.” for “significant.”

[5] = system: PC-3 human hormone-independent prostate cancer; assay: PC-3 human prostate cancer xenografts in nude mice, Experiment 1; details: 10 μg/day s.c., daily for 35 days; means±S.E.
Description: Male nude mice were implanted s.c. with 3 mm^3 pieces of PC-3 human hormone-independent prostate cancer tissue on both flanks. When tumors reached a volume of approx. 50 mm^3, the mice were divided into 4 experimental groups with 8 to 10 animals in each group and received single daily injections for 35 days as follows: 1. Control (vehicle solution); 2. JMR-132 (10 μg/day s.c.); 3. Peptide 1109 (10 μg/day s.c.); 4. Peptide 11111 (10 μg/day s.c.); Tumor volumes were measured once a week. The experiment was ended on day 35 by sacrificing the mice under Isoflurane anesthesia. Resulting tumors were cleaned, weighed, and snap-frozen until further analyses. Statistical analyses of the measurement results were done by two-tailed t-test, p<0.05 being considered significant. Data are presented as the means±S.E.

[PhAc^0-Tyr^1, D-Arg^2, Cpa^6, Ala^8, Har^9, Tyr(Me)^10, His^11, Abu^15, His^20, Nle^27, D-Arg^28, Har^29]hGH-RH(1-29)NH2 [JMR-132, reference compound]
Tumors with total regression ([1]; 135 days): 2
Tumor volume (mm^3) on day 135 ([1]; 135 days, means±S.E.): 615 ± 372 mm^3
Tumor weights (mg) ([1]; tumors removed at autopsy): 1006 ± 569 (7) mg
Tumor growth inhibition after 4 weeks (%) [2]: 15.37%
Tumor growth after 4 weeks (%) ([3]; 28 days, means±S.E.): 11537 ± 8215%
Inhibition (%) ([3]; after 4 weeks, negative = stimulation): (−46.14) %
Tumor growth after 4 weeks (%) [4]: 2404 ± 604%
Tumor growth after 5 weeks (%) [5]: 2820 ± 498%
